Results reported in patent US20240376081A1, “POLYMORPH AND APPLICATION OF PYRIMIDINE DERIVATIVE AND PHARMACEUTICALLY ACCEPTABLE SALT THEREOF” (SHANGHAI HAIYAN PHARMACEUTICAL TECHNOLOGY CO., LTD., priority 2021, published 2024).
Like-named read-outs stand apart in the source and are kept apart here. Values belong to the compound of their own block, whether it stands above or below them.

Columns and labels:
[1] = Dynamic Vapor Sorption (DVS); assay type: physicochemical
[2] = Mixing and shaking in solvents, XRPD test; assay type: physicochemical
Source text: […] After centrifugation, the supernatant was discarded, and the solids were placed in an oven to dryness and subjected to the XRPD test.

[3] = Stability experiments of free alkali crystal form I, XRPD; assay type: physicochemical; conditions: 40° C., 75% RH, lid open; 1 week, 2 weeks, 1 month, 2 months, 4 months
Source text: Samples were taken at 1 week, 2 weeks, 1 month, 2 months, and 4 months for XRPD test, respectively.

[4] = Crystal competition experiment, XRPD; assay type: physicochemical; conditions: mixed forms I, IV, V, VI, VII shaken in different solvents for 24 h
Method: In order to detect the stablest crystal form of Compound X, crystalline competition experiments were carried out. 10 mg of free alkali crystal I, free alkali crystal IV, free alkali crystal form V, free alkali crystal form VI, and free alkali crystal form VII were weighed, respectively, and mixed thoroughly. 20 mg of the mixed crystal was weighed in a glass vial, to which 1 mL of solvent in Table 14 was added respectively, and the resultant was mixed and shaken at room temperature for 24 h, and centrifugated. The precipitate was taken, dried and then measured by XRPD.

[5] = Differential scanning calorimetry (DSC), crystal form stability; assay type: physicochemical; conditions: may be transformed into free alkali crystal form I during warming up
Source text: As one of the embodiments, DSC plots in some embodiments of the present application were collected on a DISCOVERY DSC25 differential scanning calorimeter with the test parameters shown in Table 11.

[6] = In vivo pharmacokinetics in mice (LC/MS/MS plasma concentration); conditions: male, ICR, mouse; for clearance: read-out: Clearance CLz
Source text: The LC/MS/MS method was applied to determine the medicament concentration in plasma at different moments after intravenous administration and oral gavage administration of Compound X of the present application in mice, respectively, to study the pharmacokinetic behavior of Compound X of the present application in mice, and to evaluate its pharmacokinetic characteristics.
Test animals: healthy adult male ICR mice (weighing from 25 g to 40 g, 12 mice, free to drink and eat in the intravenous injection group, fasted overnight in the gavage group, and free to drink and eat 4 h after the administration of the medicament), supplied by Beijing Viton Lever Laboratory Animal Technology Co., Ltd.
Mode of administration and dosage: animals meeting the experimental requirements were selected and weighed and labeled before administration. ICR mice were administered by tail vein (2 mg/kg, 5% DMSO, pH 4.5 20% Captisol) and by gavage (10 mg/kg, 5% DMSO, pH 4.5 20% Captisol).
Blood sample collection: Prior to blood sample collection, mice were bound and approximately […] of blood was collected from the jugular vein of each administered mouse at predetermined blood collection time points (i.v. administration: Blood was collected at 9 time points: 0.083 h, 0.25 h, 0.5 h, 1 h, 2 h, 4 h, 6 h, 7.5 h, and 24 h, respectively, after administration; and gavage administration: Blood was collected at 9 time points: 0.083 h, 0.25 h, 0.5 h, 1 h, 2 h, 4 h, 6 h, 7.5 h, and 24 h, respectively, after administration). The blood was transferred to 1.5 mL tubes preloaded with K2EDTA, and the blood plasma was separated by centrifugation for 4 min (8,000 rpm, 4° C.), which was performed within 15 min after the collection. All samples were stored in a refrigerator at −20° C. until sample analysis. LC/MS/MS method was applied to determine the medicament concentration.

[7] = biological target: A2A receptor (Homo sapiens (Human), UniProt P29274); test: Inhibitory activity on A2A receptor, cAMP assay in CHO-K1/ADORA2A/Gα15 cells (Test Example 1); assay type: cell-based; conditions: NECA 50 nM
Method: (§1) CHO-K1/ADORA2A/Gα15 (GenScript, M00246) and CHO-K1/ADORA2B/Gα15 (GenScript, M00329) cells were cultured in Ham's F-12 (Gibco, 31765092) medium with medium conditions containing 10% FBS, 200 μg/mL Zeocin (bleomycin) and 100 μg/mL Hygromycin B (thaumatin B) or 10% FBS, 400 μg/mL G418 and 100 μg/mL Hygromycin B. Details of the culture conditions are described in the corresponding instructions.

[8] = tested on: mouse colon cancer MC38(#22)-hpd-L1; test: In vivo potency assay in colon cancer MC38(#22)-hpd-L1 tumor bearing mice; design: species or system C57BL/6 mice; conditions: twice a day for 22 days
Method: Experimental Protocol: In this test example, tumor bearing mice subcutaneously transplanted with mouse colon cancer MC38(#22)-hpd-L1 was investigated. After administration of Compound X of the present application via the oral administration, the in vivo efficacy of Compound X on colon cancer MC38(#22)-hpd-L1 tumor bearing mice were tested.
Experimental materials: C57BL/6 mice (female); mouse colon cancer MC38(#22)-hpd-L1 cells (Shanghai Jiao Tong University cell bank), cultured in vitro in monolayer, culture conditions were using RPMI-1640 medium containing 10/% fetal bovine serum, 37° C. 5% CO2 incubator. The cells were passaged by conventional digestion treatment with trypsin-EDTA. When the cells were in the exponential growth phase with 80% to 90% saturation, the cells were harvested and counted.
Compound Preparation: The compound was weighed and added to the solvent (40% captisol in acetate buffer, pH 3.8) to prepare a 10 mg/mL sample. 75 μL of Tecentriq solution (60 mg/mL) was taken and added to 8.925 mL of phosphate buffer solution (PBS) to make a 0.5 mg/mL phosphate solution (phosphate buffer).
Experimental Operation: Cells were resuspended in the phosphate buffer at a density of 5×10^6 cells/mL. 0.1 mL of PBS (containing 5×10^5 MC38(#22)-hpd-L1 cells) was subcutaneously inoculated into the right back of each mouse. On the day of inoculation, the mice were randomized according to their body weights into groups of 10 mice each, and dosing was begun twice a day for 22 days. The animals were weighed daily and monitored for health throughout the experimental period. Tumor diameters were measured twice a week using vernier calipers.
Tumor volume V was calculated as V=0.5×a×b^2, with a and b denoting the long and short diameters of the tumor, respectively.
The tumor suppression efficacy of the compound was evaluated by relative tumor proliferation rate T/C (%). Relative tumor proliferation rate T/C (%)=Vt/Vc×100% (Vt: mean tumor volume of the treatment group; Vc: mean tumor volume of the negative control group). Vt and Vc were data taken from the same day.

[9] = biological target: A2B receptor (Homo sapiens (Human), UniProt P29275); test: Inhibitory activity on A2B receptor, cAMP assay in CHO-K1/ADORA2B/Gα15 cells (Test Example 1); assay type: cell-based; conditions: NECA 10 nM
Method: as §1

[10] = intravenous (tail vein) 2 mg/kg, read-out: Area under the curve AUC0-t
[11] = intravenous (tail vein) 2 mg/kg
[12] = po, gavage 10 mg/kg, read-out: Area under the curve AUClast

Sequence of A2A receptor (P29274 whole entry): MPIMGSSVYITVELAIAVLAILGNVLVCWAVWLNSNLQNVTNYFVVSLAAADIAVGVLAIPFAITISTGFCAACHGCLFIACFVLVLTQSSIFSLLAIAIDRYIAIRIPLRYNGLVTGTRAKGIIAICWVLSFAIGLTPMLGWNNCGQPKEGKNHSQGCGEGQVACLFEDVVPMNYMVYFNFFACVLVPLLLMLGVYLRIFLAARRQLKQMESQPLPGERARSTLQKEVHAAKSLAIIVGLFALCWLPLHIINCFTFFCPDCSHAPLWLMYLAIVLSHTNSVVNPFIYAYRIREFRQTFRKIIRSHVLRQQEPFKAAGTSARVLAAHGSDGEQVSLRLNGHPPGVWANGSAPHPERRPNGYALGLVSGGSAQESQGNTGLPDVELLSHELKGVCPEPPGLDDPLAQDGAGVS
Sequence of A2B receptor (P29275 whole entry): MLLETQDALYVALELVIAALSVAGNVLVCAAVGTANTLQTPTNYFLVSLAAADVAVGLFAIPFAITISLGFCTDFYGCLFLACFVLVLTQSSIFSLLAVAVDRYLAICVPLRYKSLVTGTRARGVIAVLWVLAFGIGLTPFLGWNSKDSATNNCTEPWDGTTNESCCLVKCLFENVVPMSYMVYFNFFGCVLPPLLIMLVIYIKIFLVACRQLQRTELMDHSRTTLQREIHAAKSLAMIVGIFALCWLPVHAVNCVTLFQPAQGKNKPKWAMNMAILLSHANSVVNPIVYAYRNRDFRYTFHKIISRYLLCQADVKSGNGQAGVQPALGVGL

- hygroscopicity ([1]; DVS, 0% to 80% RH at 25° C.): almost no hygroscopicity
- change in mass due to absorption ([1]; relative humidity from 0% to 80% RH at 25° C.): less than 0.2%
- Crystal form after mixing and shaking ([2]; 50% Ethanol, 50° C., 1 day): Crystal form I
- Crystal form after mixing and shaking ([2]; 50% Ethanol, RT, 1 day): Crystal form I
- Crystal form after mixing and shaking ([2]; 50% Ethanol, RT, 7 days): Crystal form I
- Crystal form after mixing and shaking ([2]; Ethanol, 50° C., 1 day): Crystal form I
- Crystal form after mixing and shaking ([2]; Ethanol, RT, 1 day): Crystal form I
- Crystal form after mixing and shaking ([2]; Ethanol, RT, 7 days): Crystal form I
- Crystal form after mixing and shaking ([2]; Ethyl acetate, 50° C., 1 day): Crystal form I
- Crystal form after mixing and shaking ([2]; Ethyl acetate, RT, 1 day): Crystal form I
- Crystal form after mixing and shaking ([2]; Ethyl acetate, RT, 7 days): Crystal form I
- Crystal form after mixing and shaking ([2]; Isopropanol, 50° C., 1 day): Crystal form I
- Crystal form after mixing and shaking ([2]; Isopropanol, RT, 1 day): Crystal form I
- Crystal form after mixing and shaking ([2]; Isopropanol, RT, 7 days): Crystal form I
- Crystal form after mixing and shaking ([2]; Methyl tert-butyl ether, 50° C., 1 day): Crystal form I
- Crystal form after mixing and shaking ([2]; Methyl tert-butyl ether, RT, 1 day): Crystal form I
- Crystal form after mixing and shaking ([2]; Methyl tert-butyl ether, RT, 7 days): Crystal form I
- Crystal form after mixing and shaking ([2]; Water, 50° C., 1 day): Crystal form I
- Crystal form after mixing and shaking ([2]; Water, RT, 1 day): Crystal form I
- Crystal form after mixing and shaking ([2]; Water, RT, 7 days): Crystal form I
- change of crystal form after mixing and shaking ([2]; any of the seven solvents shown): did not change
- Crystal form after mixing and shaking ([2]; n-Heptane, 50° C., 1 day): Crystal form I
- Crystal form after mixing and shaking ([2]; n-Heptane, RT, 1 day): Crystal form I
- Crystal form after mixing and shaking ([2]; n-Heptane, RT, 7 days): Crystal form I
- physical stability (XRPD) [3]: physically stable
- stablest crystal form determined by competition [4]: stable crystal form
SMILES: Cc1c(C#N)cccc1-c1nc(N)c(F)c(-c2cn(Cc3cccc(C(C)(C)O)n3)nn2)n1 [free alkali crystal form I, 3-(4-amino-5-fluoro-6-(1-((6-(2-hydroxypropan-2-yl)pyridin-2-yl)methyl)-1H-1,2,3-triazol-4-yl)pyrimidin-2-yl)-2-methylbenzonitrile]

- crystal form stability from DSC plot [5]: sub-stable crystal form
SMILES: Cc1c(C#N)cccc1-c1nc(N)c(F)c(-c2cn(Cc3cccc(C(C)(C)O)n3)nn2)n1 [free alkali crystal form IV, 3-(4-amino-5-fluoro-6-(1-((6-(2-hydroxypropan-2-yl)pyridin-2-yl)methyl)-1H-1,2,3-triazol-4-yl)pyrimidin-2-yl)-2-methylbenzonitrile]

- AUC(0-t) [6, 10]: 2250 ng·h/mL
- clearance [6, 11]: 14.7 mL/min/kg
- Cmax ([6]; po, gavage 10 mg/kg): 8730 ng/mL
- AUC(0-t) [6, 12]: 10400 ng·h/mL
- IC50 [7]: 0.001 mM
- IC50 [9]: 0.003 mM
SMILES: Cc1c(C#N)cccc1-c1nc(N)c(F)c(-c2cn(Cc3cccc(C(C)(C)O)n3)nn2)n1 [Compound X, 3-(4-amino-5-fluoro-6-(1-((6-(2-hydroxypropan-2-yl)pyridin-2-yl)methyl)-1H-1,2,3-triazol-4-yl)pyrimidin-2-yl)-2-methylbenzonitrile]
- Relative tumor proliferation rate T/C (%) ([8]; 10 mg/kg oral): 75.5%
- Tumor volume ([8]; 10 mg/kg oral): 899 mm^3
- Relative tumor proliferation rate T/C (%) ([8]; 30 mg/kg oral): 34.0%
- Tumor volume ([8]; 30 mg/kg oral): 405 mm^3
- Relative tumor proliferation rate T/C (%) ([8]; 100 mg/kg oral): 24.0%
- Tumor volume ([8]; 100 mg/kg oral): 286 mm^3

- AUC(0-t) [6, 10]: 1650 ng·h/mL
- clearance [6, 11]: 19 mL/min/kg
- Cmax ([6]; po, gavage 10 mg/kg): 5960 ng/mL
- AUC(0-t) [6, 12]: 10300 ng·h/mL
SMILES: Cc1c(C#N)cccc1-c1cc(-c2cn(Cc3cccc(C(C)(C)O)n3)nn2)nc(N)n1 [Compound D1, reference compound]
- Relative tumor proliferation rate T/C (%) ([8]; 100 mg/kg oral): 75.8%
- Tumor volume ([8]; 100 mg/kg oral): 902 mm^3
